In article PMC9851200, “Multiparameter phenotypic screening for endogenous TFEB and TFE3 translocation identifies novel chemical series modulating lysosome function” (Autophagy, 2022):
Entries after “also recorded” stand apart in the source; their conditions may differ. Where two headings read alike, the source gives them in different places.

What was measured:
[1] = tested on: SH-SY5Y cells
Description: The PKIS2 Library was supplied by The Structural Genomics Consortium at the University of North Carolina at Chapel Hill.

[2] = tested on: endogenous TFEB; test: TFEB nuclear translocation, immunocytochemistry high-content imaging; format: cell-based; settings: for TFEB %: PKIS2 primary screening
[3] = tested on: endogenous TFE3; test: TFE3 nuclear translocation, immunocytochemistry high-content imaging; format: cell-based; settings: for TFE3 %: PKIS2 primary screening; for Best-Fit Values Span: TFE3 assay concentration response; for Best-Fit Values Span / EC50: 24 h; for EC50: TFE3 assay, read-out: Best-Fit Values EC50 (converted); for Summary: activity in TFE3 assays compared with original NK-140, OT activity
[4] = tested on: SH-SY5Y cells; test: AK (adenylate kinase) release ToxiLight cytotoxicity assay; settings: for Cellular toxicity (AK release and nuclear count, in words): SH-SY5Y, 24 h treatment; for AK: PKIS2 primary screening
Protocol: Total cell lysis with 5 µL 5% Triton-X 100 (Sigma-Aldrich, T8787) is used as a positive control for the assay and toxicity is expressed as a percentage of luminescence under DMSO conditions.

[5] = tested on: SH-SY5Y cells; test: Nuclear count from microscopy images (cellular growth and toxicity); settings: PKIS2 primary screening
[6] = PKIS2 primary screening, DQ Red BSA intensity
[7] = PKIS2 primary screening, DQ Red BSA spot count
[8] = SH-SY5Y, concentration-dependent

Compound	TFEB % [2]	TFE3 % [3]	DQ Intensity [1, 6]	DQ Spot [1, 7]	AK [4]	Nuclear Count [5]	also measured
CC(=O)Nc1ccc(C(=O)Nc2ccccc2N)cc1 [CI-994, Tacedinaline, reference compound]	–	–	–	–	–	–	DQ Red BSA signal (in words) ([1]; SH-SY5Y, 24 h treatment): robustly increase DQ Red BSA puncta signal; DQ Red BSA spot count / active lysosome count (in words) ([1]; SH-SY5Y, 24 h treatment): increases
O=C1NCCCc2c1oc1ccc(O)cc21 [CID755673, reference compound]	–	–	–	–	–	–	TFEB translocation (in words) [2]: no TFEB and TFE3 translocation; also recorded: no effect across these assays; TFE3 translocation (in words) [3]: no TFEB and TFE3 translocation; also recorded: no effect across these assays; DQ Red BSA signal (in words) [1]: no TFEB and TFE3 translocation, alteration in DQ Red BSA signal or toxicity; also recorded: no effect across these assays; Cellular toxicity (AK release and nuclear count, in words) [4]: no TFEB and TFE3 translocation, alteration in DQ Red BSA signal or toxicity; also recorded: no effect across these assays
O=C(Nc1ccc(CN2CCOCC2)cc1)c1ccc(-c2cccc(Cl)c2)o1 [CID2011756, reference compound]	–	–	–	–	–	–	TFEB translocation (in words) [2]: some TFEB and TFE3 translocation only at 20 µM; also recorded: induced TFEB and TFE3 translocation only alongside marked lysosomal and cellular toxicity at 20 µM; TFE3 translocation (in words) [3]: some TFEB and TFE3 translocation only at 20 µM; also recorded: induced TFEB and TFE3 translocation only alongside marked lysosomal and cellular toxicity at 20 µM; DQ Red BSA signal (in words) [1]: some reduction of DQ Red BSA signal; Lysosomal toxicity (in words) ([1]; human): marked lysosomal and cellular toxicity at 20 µM; Cellular toxicity (AK release and nuclear count, in words) [4]: marked lysosomal and cellular toxicity at 20 µM
Clc1cc(Cl)cc(Nc2ccnc(Nc3cc(Cl)cc(Cl)c3)n2)c1 [GSK175726]	3.77%	10.08%	98.51	117.48	105.62	91.70	–
Cc1ccc(S(=O)(=O)Nc2ccc(Nc3nccc(Nc4cccc5[nH]ncc45)n3)cc2)cc1 [GSK581271]	3.93%	6.80%	132.42	120.36	89.43	129.24	–
Nc1nccc(-c2ccc3c(N)n[nH]c3c2)n1 [GSK1034945]	3.25%	14.89%	84.11	101.09	117.83	141.53	–
COc1ccc(Nc2nccc(-c3ccc(NC(=O)c4cc5cc(F)ccc5[nH]4)cc3)n2)cc1 [GSK1229496]	5.47%	10.21%	79.73	89.01	76.92	129.71	–
Cc1cccc(-c2nc(Nc3ccc4ncn(C)c4c3)c3ccccc3n2)n1 [NK173]	–	–	–	–	–	–	Best-Fit Values Span ([3]; SH-SY5Y): 80.89; EC50 ([3]; SH-SY5Y, second EC50 of biphasic/bell-shaped fit or OT (off-target) activity, unit inferred): 1.92 µM; Summary [3]: Only OT activity
Cc1cccc(-c2nc(Nc3ccc4[nH]ccc4c3)c3ccccc3n2)n1 [NK218]	–	–	–	–	–	–	Best-Fit Values Span ([3]; SH-SY5Y): 20.78; EC50 ([3]; SH-SY5Y, µM): 0.42 µM; Summary [3]: More Potent
CC(C)c1nc(-c2cccc(NS(=O)(=O)c3ccccc3)c2)c(-c2ccnc(Nc3ccc4c(c3)CN(C)CC4)n2)s1 [UNC10225068A]	–	63.29%	–	–	114.97	76.87	DQ Intensity ([1]; PKIS2 primary screening): 3.98; DQ Spot ([1]; PKIS2 primary screening): 39.66
Cc1cnc(N)c(/C=C/c2cncc(C(=O)NCCc3ccc(Cl)cc3Cl)c2)c1.Cl [UNC10225238A]	–	–	95.52	99.30	–	–	–
C[C@@H](Oc1cc(-n2cnc3cc(-c4cnn(C)c4)ccc32)sc1C(N)=O)c1ccccc1Cl [UNC10225416A]	18.53%	8.07%	–	–	104.83	–	DQ Intensity [1]: 219.18; DQ Spot [1]: 124.35
CCN(CC)CCCC(C)Nc1ccnc2cc(Cl)ccc12 (stereo not drawn) [chloroquine, reference compound]	–	–	–	–	–	–	TFEB translocation from the cytoplasm to the nucleus (% nTFEB) [2, 8]: > 80%; TFE3 translocation from the cytoplasm to the nucleus (% nTFE3) [3, 8]: > 80%; DQ Red BSA signal (in words) ([1]; SH-SY5Y, 24 h treatment): greatly reduced; DQ Red BSA spot count / active lysosome count (in words) ([1]; SH-SY5Y, 24 h treatment): reduces
